Legend:
Type in all cases: in vivo
[1] = test system: Spodoptera littoralis (Egyqptian Cotton Leaf Worm); assay: Spodoptera littoralis L1 larvae on sprayed cotton leaf discs; conditions: foliar, 72 h, application rate of 200 ppm, L1 larvae, 3 days after infestation, read-out: control (mortality, anti-feeding effect, growth inhibition)
Experimental: Example B8: Spodoptera littoralis (Egyqptian Cotton Leaf Worm)
Cotton leaf discs were placed onto agar in 24-well microtiter plates and sprayed with aqueous test solutions prepared from 10′000 ppm DMSO stock solutions. After drying the leaf discs were infested with five L1 larvae. The samples were assessed for mortality, anti-feeding effect, and growth inhibition in comparison to untreated samples 3 days after infestation. Control of Spodoptera littoralis by a test sample is given when at least one of the categories mortality, anti-feedant effect, and growth inhibition is higher than the untreated sample.

[2] = test system: Myzus persicae (Green Peach Aphid); assay: Myzus persicae systemic activity, pea seedlings; conditions: 144 h, test rate of 24 ppm, 6 days after placing seedlings into test solutions
[3] = test system: Myzus persicae (Green Peach Aphid); assay: Myzus persicae feeding/contact activity, sunflower leaf discs; conditions: foliar, 144 h, application rate of 200 ppm, feeding/contact, population of mixed ages, 6 days after infestation, read-out: mortality
Experimental: Example B5: Myzus persicae (Green Peach Aphid): Feeding/Contact Activity
(§1) Sunflower leaf discs were placed onto agar in a 24-well microtiter plate and sprayed with aqueous test solutions prepared from 10′000 ppm DMSO stock solutions. After drying, the leaf discs were infested with an aphid population of mixed ages. The samples were assessed for mortality 6 days after infestation.

[4] = test system: Euschistus heros (Neotropical Brown Stink Bug); assay: Euschistus heros N2 nymphs on soybean leaves; conditions: 120 h, application rate of 200 ppm, 5 days after infestation, read-out: effect in at least one of the two categories (mortality or growth inhibition)
[5] = test system: Tetranychus urticae (Two-Spotted Spider Mite); assay: Tetranychus urticae feeding/contact activity, bean leaf discs; conditions: foliar, 192 h, application rate of 200 ppm, mixed population (mobile stages), 8 days after infestation
Experimental: Example B10: Tetranychus urticae (Two-Spotted Spider Mite): Feeding/Contact Activity
Bean leaf discs on agar in 24-well microtiter plates were sprayed with aqueous test solutions prepared from 10′000 ppm DMSO stock solutions. After drying the leaf discs were infested with a mite population of mixed ages. The samples were assessed for mortality on mixed population (mobile stages) 8 days after infestation.

[6] = test system: Bemisia tabaci (Cotton White Fly); assay: Bemisia tabaci feeding/contact activity, cotton leaf discs; conditions: foliar, 144 h, application rate of 200 ppm, adult white flies, 6 days after incubation
Experimental: Example B1: Bemisia tabaci (Cotton White Fly): Feeding/Contact Activity
Cotton leaf discs were placed on agar in 24-well microtiter plates and sprayed with aqueous test solutions prepared from 10′000 ppm DMSO stock solutions. After drying the leaf discs were infested with adult white flies. The samples were checked for mortality 6 days after incubation.

[7] = test system: Spodoptera littoralis (Egyqptian Cotton Leaf Worm); assay: Spodoptera littoralis, uptake by lettuce roots from agar; conditions: 144 h, test rate of 12.5 ppm, 6 days after infestation, read-out: effect in at least one of the three categories (mortality, anti-feeding, or growth inhibition)
Excerpt: Example B9: Spodoptera littoralis (Egyqptian Cotton Leaf Worm)
Test compounds were applied by pipette from 10′000 ppm DMSO stock solutions into 24-well plates and mixed with agar. Lettuce seeds were placed onto the agar and the multi well plate was closed by another plate which contained also agar. After 7 days the compound was absorbed by the roots and the lettuce grew into the lid plate. The lettuce leaves were then cut off into the lid plate. Spodoptera eggs were pipetted through a plastic stencil onto a humid gel blotting paper and the lid plate was closed with it. The samples were assessed for mortality, anti-feedant effect and growth inhibition in comparison to untreated samples 6 days after infestation.

[8] = test system: Thrips tabaci (Onion Thrips); assay: Thrips tabaci feeding/contact activity, sunflower leaf discs; conditions: foliar, 144 h, application rate of 200 ppm, population of mixed ages, 6 days after infestation
Experimental: Example B11: Thrips tabaci (Onion Thrips) Feeding/Contact Activity
as §1, with “on” for “onto”, “in” for “in a”, “plates” for “plate”, “drying” for “drying,”, “a thrips” for “an aphid”

[9] = test system: Plutella xylostella (Diamond Back Moth); assay: Plutella xylostella L2 larvae on artificial diet; conditions: 120 h, application rate of 200 ppm, L2 larvae, 5 days after infestation, read-out: effect in at least one of the two categories (mortality or growth inhibition)
Experimental: Example B7: Plutella xylostella (Diamond Back Moth)
(§2) 24-well microtiter plates with artificial diet were treated with aqueous test solutions prepared from 10′000 ppm DMSO stock solutions by pipetting. After drying, the plates were infested with L2 larvae (10 to 15 per well). The samples were assessed for mortality and growth inhibition in comparison to untreated samples 5 days after infestation.

[10] = test system: Diabrotica Balteata (Corn Root Worm); assay: Diabrotica balteata L2 larvae on maize sprouts; conditions: 96 h, application rate of 200 ppm, L2 larvae, 4 days after infestation, read-out: effect in at least one of the two categories (mortality or growth inhibition)
Experimental: Example B2: Diabrotica Balteata (Corn Root Worm)
as §2, with “Maize sprouts placed onto an agar layer in 24-well” for “24-well”, “plates” for “plates with artificial diet”, “spraying.” for “pipetting.”, “(6” for “(10”, “10” for “15”, “4” for “5”

CCS(=O)(=O)c1cc(NC2CC2)cnc1-c1nnc(-c2cc(C(F)(F)F)ccn2)n1C [A9, N-cyclopropyl-5-ethylsulfonyl-6-[4-methyl-5-[4-(trifluoromethyl)-2-pyridyl]-1,2,4-triazol-3-yl]pyridin-3-amine]
≥ 80%: mortality at 200 ppm [1] | mortality at 24 ppm [2] | mortality at 200 ppm [3] | percent effect (mortality or growth inhibition) at 200 ppm [4] | mortality at 200 ppm [5]

CCS(=O)(=O)c1ccc(C(=O)N(C)C2CC2)nc1-c1nnc(-c2cc(C(F)(F)F)ccn2)n1C [A17, N-cyclopropyl-5-ethylsulfonyl-N-methyl-6-[4-methyl-5-[4-(trifluoromethyl)-2-pyridyl]-1,2,4-triazol-3-yl]pyridine-2-carboxamide]
≥ 80%: mortality at 24 ppm [2] | mortality at 200 ppm [3] | mortality at 200 ppm [6]

CCS(=O)(=O)c1cc(C(=O)NCC#N)cnc1-c1nnc(-c2cc(C(F)(F)F)ccn2)n1C [A26, N-(cyanomethyl)-5-ethylsulfonyl-6-[4-methyl-5-[4-(trifluoromethyl)-2-pyridyl]-1,2,4-triazol-3-yl]pyridine-3-carboxamide]
≥ 80%: mortality at 24 ppm [2] | mortality at 200 ppm [3] | mortality at 200 ppm [5]

CCS(=O)(=O)c1ccc(C(=O)O)nc1-c1nnc(-c2cc(C(F)(F)F)ccn2)n1C [A34, 5-ethylsulfonyl-6-[4-methyl-5-[4-(trifluoromethyl)-2-pyridyl]-1,2,4-triazol-3-yl]pyridine-2-carboxylic Acid]
≥ 80%: percent effect (mortality, anti-feeding or growth inhibition) at 12.5 ppm [7]

CCS(=O)(=O)c1cc(Cl)c(N)nc1-c1nnc(-c2cc(C(F)(F)F)ccn2)n1C [A42, 3-chloro-5-ethylsulfonyl-6-[4-methyl-5-[4-(trifluoromethyl)-2-pyridyl]-1,2,4-triazol-3-yl]pyridin-2-amine]
≥ 80%: mortality at 200 ppm [8] | mortality at 200 ppm [1] | percent effect (mortality or growth inhibition) at 200 ppm [9] | mortality at 24 ppm [2] | mortality at 200 ppm [3] | mortality at 200 ppm [6] | percent effect (mortality or growth inhibition) at 200 ppm [10]

CCS(=O)(=O)c1cc(Br)c(N)nc1-c1nnc(-c2cc(C(F)(F)F)ccn2)n1C [A43]
≥ 80%: mortality at 200 ppm [8] | mortality at 200 ppm [1] | percent effect (mortality or growth inhibition) at 200 ppm [9] | mortality at 24 ppm [2] | mortality at 200 ppm [3] | mortality at 200 ppm [6] | percent effect (mortality or growth inhibition) at 200 ppm [10]

CCS(=O)(=O)c1cc(N)c(Br)nc1-c1nnc(-c2cc(C(F)(F)F)ccn2)n1C [A45]
≥ 80%: mortality at 200 ppm [1] | percent effect (mortality or growth inhibition) at 200 ppm [9] | percent effect (mortality or growth inhibition) at 200 ppm [10] | percent effect (mortality, anti-feeding or growth inhibition) at 12.5 ppm [7]

Reference: patent US10556884B2, “Pesticidally active heterocyclic derivatives with sulphur containing substituents” (SYNGENTA PARTICIPATIONS AG, priority 2015, dated 2020)
